# Assay results: patent US11149033B2, “Heteroaryl compound, enantiomer, diastereomer or pharmaceutically acceptable salt thereof, and antiviral composition containing same as active ingredient” (priority 2016, dated 2021)
# Like-named read-outs stand apart in the source and are kept apart here.
# Assays:
# B/Florida/04/2006 = test: Antiviral activity (drug efficacy evaluation by concentration) against B/Florida/04/2006; format: cell-based, B type influenza virus
# [1] = system: A/California/07/2009 (H1N1); test: Antiviral activity (drug efficacy evaluation by concentration) against A/California/07/2009 (H1N1); format: cell-based, A type influenza virus; conditions: Influenza A virus
# A/Perth/16/2009 (H3N2) = test: Antiviral activity (drug efficacy evaluation by concentration) against A/Perth/16/2009 (H3N2); format: cell-based, A type influenza virus; conditions: Influenza A virus
# [2] = CC50, third EC50/CC50 column pair (c7), beside the EC50 of c6
# [3] = read-out: EC50 B/Florida/04/2006, B/Florida/04/2006
# [4] = H1N1, A/California/07/2009 (H1N1), read-out: EC50 A/California/07/2009 (H1N1)
# [5] = H3N2, A/Perth/16/2009 (H3N2), read-out: EC50 A/Perth/16/2009 (H3N2)
# [6] = CC50 B/Florida/04/2006, cytotoxicity in the B/Florida/04/2006 assay
SMILES,EC50 (B/Florida/04/2006),"EC50 ([1]; H1N1, read-out: EC50)","EC50 (A/Perth/16/2009 (H3N2); H3N2, read-out: EC50)","CC50 (in vitro; CC50, beside the EC50 of c2)","CC50 (in vitro; CC50, beside the EC50 of c4)",CC50 (in vitro; [2]),melting point,EC50 (B/Florida/04/2006; [3]),"EC50 [1, 4]",EC50 (A/Perth/16/2009 (H3N2); [5]),CC50 (in vitro; [6])
"Cc1ccccc1CC(C)c1nnc(Cc2ccc(Br)cc2)o1 (stereo not shown) [Compound 140, 2-(4-bromobenzyl)-5-(1-(o-tolyl)propan-2-yl)-1,3,4-oxadiazole]",14.1 µM,18.2 µM,19.9 µM,> 50 µM,> 50 µM,> 50 µM,–,–,–,–,–
"CC(C)c1ccccc1/C=C/c1nnc(Cc2ccc(Br)cc2)o1 [Compound 82, (E)-2-(4-bromobenzyl)-5-(2-isopropylstyryl)-1,3,4-oxadiazole]",> 50 µM,–,–,> 50 µM,> 50 µM,> 50 µM,91.6 °C,–,–,–,–
"Cc1cc(C)cc(Cc2nnc(CCc3ccccc3C(C)C)o2)c1 [Compound 94, 2-(3,5-dimethylbenzyl)-5-(2-isopropylphenethyl)-1,3,4-oxadiazole]",> 50 µM,37.8 µM,43.4 µM,> 50 µM,> 50 µM,> 50 µM,–,–,–,–,–
"Cc1ccccc1C(C)Cc1nnc(Cc2ccc(Br)cc2)o1 (stereo not shown) [Compound 110, 2-(4-bromobenzyl)-5-(2-(o-tolyl)propyl)-1,3,4-oxadiazole]",46.7 µM,32.2 µM,41.5 µM,46.7 µM,> 50 µM,> 50 µM,–,–,–,–,–
"C/C(=C\c1ccccc1C)c1nnc(Cc2ccc(Br)cc2)o1 [Compound 144, 2-(4-bromobenzyl)-5-(1-(o-tolyl)prop-1-en-2-yl)-1,3,4-oxadiazole]",> 50 µM,48.7 µM,49.3 µM,> 50 µM,> 50 µM,> 50 µM,–,–,–,–,–
"Cc1nn(Cc2nnc(SCc3ccccc3Cc3ccccc3)o2)c(C)c1Br [Compound 38, 2-((2-benzylbenzyl)thio)-5-((4-bromo-3,5-dimethyl-1H-pyrazol-1-yl)methyl)-1,3,4-oxadiazole]",–,–,–,–,–,–,–,1.18 µM,1.03 µM,1.04 µM,> 50 µM
"Cc1cc(C)cc(Cc2nnc(/C=C/c3ccccc3C(C)C)o2)c1 [Compound 113, 2-(3,5-dimethylbenzyl)-5-(2-isopropylstyryl)-1,3,4-oxadiazole]",1.55 µM,1.37 µM,1.39 µM,10 µM,25.5 µM,40.2 µM,–,–,–,–,–
"FC(F)(c1ccc(Br)cc1)c1nnc(SCc2ccccc2-c2ccccc2)o1 [Compound 74, 2-(([1,1′-biphenyl]-2-ylmethyl)thio)-5-((4-bromophenyl)difluoromethyl)-1,3,4-oxadiazole]",–,–,–,–,–,–,–,> 50 µM,21.2 µM,11 µM,> 50 µM
"Cc1ccccc1CCc1nnc(Cc2ccc(Br)cc2)o1 [Compound 103, 2-(4-bromobenzyl)-5-(2-methylphenethyl)-1,3,4-oxadiazole]",3.15 µM,3.1 µM,3 µM,> 50 µM,> 50 µM,> 50 µM,–,–,–,–,–
"CC(C)c1ccccc1CCc1nnc(Cc2cccc(Cl)c2)o1 [Compound 102, 2-(3-chlorobenzyl)-5-(2-isopropylphenethyl)-1,3,4-oxadiazole]",2.14 µM,1.7 µM,1.5 µM,47.7 µM,> 50 µM,> 50 µM,–,–,–,–,–
"Cc1cc(Nc2nnc(CCc3ccccc3C)o2)ccc1Br [Compound 90, N-(4-bromo-3-methylphenyl)-5-(2-methylphenethyl)-1,3,4-oxadiazol-2-amine]",–,> 50 µM,> 50 µM,> 50 µM,> 50 µM,> 50 µM,122.7 °C,–,–,–,–
"Brc1ccc(Cc2nnc(CCc3ccccc3-c3ccccc3)o2)cc1 [Compound 119, 2-(2-([1,1′-biphenyl]-2-yl)ethyl)-5-(4-bromobenzyl)-1,3,4-oxadiazole]",> 50 µM,> 50 µM,> 50 µM,> 50 µM,> 50 µM,> 50 µM,–,–,–,–,–
"Brc1cnn(Cc2nnc(SCc3ccccc3-c3ccccc3)o2)c1 [Compound 3, 2-(([1,1′-biphenyl]-2-ylmethyl)thio)-5-((4-bromo-1H-pyrazol-1-yl)methyl)-1,3,4-oxadiazole]",–,–,–,–,–,–,–,1.21 µM,1.36 µM,1.75 µM,> 50 µM
"CC(C)c1ccc(/C=C/c2nnc(Cc3ccc(Br)cc3)o2)cc1 [Compound 154, 2-(4-bromobenzyl)-5-(4-isopropylstyryl)-1,3,4-oxadiazole]",> 50 µM,–,–,> 50 µM,> 50 µM,> 50 µM,139.8 °C,–,–,–,–
"CC(c1ccccc1)c1nnc(SCc2ccccc2-c2ccccc2)o1 (stereo not shown) [Compound 73, 2-(([1,1′-biphenyl]-2-ylmethyl)thio)-5-(1-phenylethyl)-1,3,4-oxadiazole]",–,–,–,–,–,–,–,> 50 µM,17.2 µM,41.7 µM,> 50 µM
"Fc1ccc(/C=C/c2nnc(Cc3ccc(Cl)c(Cl)c3)o2)c(Cl)c1 [Compound 208, 2-(2-chloro-4-fluorostyryl)-5-(3,4-dichlorobenzyl)-1,3,4-oxadiazole]",1.19 µM,–,0.72 µM,> 50 µM,> 50 µM,> 50 µM,179.9 °C,–,–,–,–
"Fc1ccc(/C=C/c2nnc(Cc3ccc(F)c(Cl)c3)o2)c(Cl)c1 [Compound 159, (E)-2-(3-chloro-4-fluorobenzyl)-5-(2-chloro-4-fluorostyryl)-1,3,4-oxadiazole]",–,> 50 µM,39.7 µM,> 50 µM,> 50 µM,> 50 µM,142.2 °C,–,–,–,–
"Fc1cc(Nc2nnc(/C=C/c3ccccc3Br)o2)ccc1Br [Compound 88, (E)-N-(4-bromo-3-fluorophenyl)-5-(2-bromostyryl)-1,3,4-oxadiazol-2-amine]",–,> 50 µM,> 50 µM,> 50 µM,> 50 µM,> 50 µM,225.1 °C,–,–,–,–
"CC(C)c1ccccc1/C=C/c1nnc(Cc2ccc(F)c(Cl)c2)o1 [Compound 131, 2-(3-chloro-4-fluorobenzyl)-5-(2-isopropylstyryl)-1,3,4-oxadiazole]",1.02 µM,0.927 µM,0.835 µM,–,–,–,–,–,–,–,–
"Brc1ccc(NCc2nnc(SCc3ccccc3-c3ccccc3)o2)cc1 [Compound 47, N-((5-(([1,1′-biphenyl]-2-ylmethyl)thio)-1,3,4-oxadiazol-2-yl)methyl)-4-bromoaniline]",–,–,–,–,–,–,–,> 50 µM,> 50 µM,–,> 50 µM
"Fc1ccc(/C=C/c2nnc(Cc3cc(Cl)ccn3)o2)c(Cl)c1 [Compound 206, (E)-2-(2-chloro-4-fluorostyryl)-5-((4-chloropyridin-2-yl)methyl)-1,3,4-oxadiazole]",2.26 µM,–,1.28 µM,> 50 µM,> 50 µM,> 50 µM,–,–,–,–,–
"FC(F)(F)c1cccc(/C=C/c2nnc(Cc3ccc(Br)cc3)o2)c1Cl [Compound 152, 2-(4-bromobenzyl)-5-(2-chloro-3-(trifluoromethyl)styryl)-1,3,4-oxadiazole]",> 50 µM,–,> 50 µM,> 50 µM,> 50 µM,> 50 µM,118.9 °C,–,–,–,–
"COc1cccc(Cc2nnc(/C=C/c3ccc(F)cc3Cl)o2)c1 [Compound 202, (E)-2-(2-chloro-4-fluorostyryl)-5-(3-methoxybenzyl)-1,3,4-oxadiazole]",> 50 µM,–,> 50 µM,> 50 µM,> 50 µM,> 50 µM,131.7 °C,–,–,–,–
"Cc1ncccc1/C=C/c1nnc(Cc2cccc(Br)c2)o1 [Compound 204, (E)-2-(3-bromobenzyl)-5-(2-(2-methylpyridin-3-yl)vinyl)-1,3,4-oxadiazole]",2.5 µM,–,–,> 50 µM,> 50 µM,> 50 µM,–,–,–,–,–
"O=C(c1cccc(-c2ccccc2)c1)c1nnc(Cc2ccc(Br)cc2)o1 [Compound 69, [1,1′-biphenyl]-3-yl(5-(4-bromobenzyl)-1,3,4-oxadiazol-2-yl)methanone]",–,–,–,–,–,–,166.4 °C,–,> 50 µM,49.3 µM,> 50 µM
"Cc1nn(Cc2nnc(SCc3ccncc3-c3ccccc3)o2)c(C)c1Br [Compound 16, 2-((4-bromo-3,5-dimethyl-1H-pyrazol-1-yl)methyl)-5-(((3-phenylpyridin-4-yl)methyl)thio)-1,3,4-oxadiazole]",–,–,–,–,–,–,–,> 50 µM,–,> 50 µM,> 50 µM
"Cc1ccc(Cc2nnc(/C=C/c3ccccc3C(C)C)o2)cc1Br [Compound 145, 2-(3-bromo-4-methylbenzyl)-5-(2-isopropylstyryl)-1,3,4-oxadiazole]",> 50 µM,–,49.1 µM,> 50 µM,> 50 µM,> 50 µM,111.2 °C,–,–,–,–
"CCn1c(Cn2nc(C)c(Br)c2C)nnc1SCc1ccccc1-c1ccccc1 [Compound 24, 3-(([1,1′-biphenyl]-2-ylmethyl)thio)-5-((4-bromo-3,5-dimethyl-1H-pyrazol-1-yl)methyl)-4-ethyl-4H-1,2,4-triazole]",–,–,–,–,–,–,137.8 °C,> 50 µM,–,> 50 µM,> 50 µM
"Fc1ccc(/C=C/c2nnc(Nc3ccc(Br)c(F)c3)o2)c(Cl)c1 [Compound 160, (E)-N-(4-bromo-3-fluorophenyl)-5-(2-chloro-4-fluorostyryl)-1,3,4-oxadiazol-2-amine]",–,> 50 µM,> 50 µM,> 50 µM,> 50 µM,> 50 µM,195.7 °C,–,–,–,–
